Laboratory results reported in ChEMBL document CHEMBL1125691, “Escherichia coli mediated biosynthesis and in vitro anti-HIV activity of lipophilic 6-halo-2',3'-dideoxypurine nucleosides” (J Med Chem, 1991).

How the values were obtained:
ATH-8 cell line [1] = test: Concentration required to suppress the growth of target ATH8 cells; format: functional; settings: Homo sapiens, read-out: CD50 (the source's name)
ATH-8 cell line [2] = test: Concentration required to inhibit the cytopathic effect of HIV-1 on ATH8 cells; format: functional, Human immunodeficiency virus 1; settings: Homo sapiens, read-out: ED50 (the source's name)
ATH-8 cell line [3] = test: In Vitro evaluation for the anti-viral activity Drug concentrations required to inhibit the cytopathic effect of HIV-2 on ATH8 cells; format: functional; settings: Homo sapiens, read-out: ED50 (the source's name)
ATH-8 cell line [4] = test: In vitro evaluation for the anti-viral activity by taking the drug concentrations required to suppress the growth of target ATH8 cells; format: functional; settings: Homo sapiens, read-out: CD50 (the source's name)
ATH-8 cell line [5] = test: In vitro evaluation for the anti-viral activity Drug concentrations required to inhibit the cytopathic effect of HIV-1on ATH8 cells; format: functional; settings: Homo sapiens, read-out: ED50 (the source's name)
ATH-8 cell line [6] = test: Ratio of CD50/ED50; format: functional
ATH-8 cell line [7] = test: (§1) ratio of CD50/ED50; format: functional
[8] = Compound was evaluated for the partition coefficient measured for 1-octanol and 0.01 M potassium phosphate buffer (pH 7.0); format: physicochemical; settings: octanol/water
[9] = as §1; format: functional

SMILES | EC50 (ATH-8 cell line [2]) [µM] | CC50 (ATH-8 cell line [1]) [µM] | further results
OCC1CCC(n2cnc3c(Br)ncnc32)O1 (configuration not stated) | 7.7 | 96 | –
O=c1[nH]c(=O)c2ncn([C@H]3CC[C@@H](CO)O3)c2[nH]1 | > 200 | > 200 | –
Nc1nc(S)c2ncn(C3CCC(CO)O3)c2n1 (configuration not stated) | – | – | CC50 (ATH-8 cell line [4]): 9 µM; EC50 (ATH-8 cell line [5]): > 200 µM; Ratio (ATH-8 cell line [6]): <0.1
Nc1ncc2ncn([C@H]3CC[C@@H](CO)O3)c2n1 | > 200 | > 200 | –
OC[C@@H]1CC[C@H](n2cnc3c(Cl)ncnc32)O1 | 6.9 | 164 | EC50 (ATH-8 cell line [3]): 42 µM
OC[C@@H]1CC[C@H](n2cnc3c(Cl)nc(Cl)nc32)O1 | > 200 | 36 | Ratio [9]: < 0.2
Nc1nc(I)c2ncn(C3CCC(CO)O3)c2n1 (configuration not stated) | 7.9 | 210 | –
OCC1CCC(n2cnc3c(I)ncnc32)O1 (configuration not stated) | 46 | 86 | –
OC[C@@H]1CC[C@H](n2cnc3cncnc32)O1 | > 200 | > 200 | –
OCC1CCC(n2cnc3c(S)ncnc32)O1 (configuration not stated) | > 200 | 150 | Ratio (ATH-8 cell line [7]): <0.8
Nc1nc(Br)c2ncn(C3CCC(CO)O3)c2n1 (configuration not stated) | 6.9 | > 300 | –

Second part, led by results:

EC50 (ATH-8 cell line [2]) [µM] | SMILES | CC50 (ATH-8 cell line [1]) [µM] | further results
2.8 | OC[C@@H]1CC[C@H](n2cnc3c(F)ncnc32)O1 | 190 | EC50 (ATH-8 cell line [3]): 16 µM
5.5 | Nc1nc(Cl)c2ncn([C@H]3CC[C@@H](CO)O3)c2n1 | > 300 | EC50 (ATH-8 cell line [3]): 12.5 µM
5.6 | O=c1[nH]cnc2c1ncn2[C@H]1CC[C@@H](CO)O1 [DIDANOSINE] | > 900 | Ratio (ATH-8 cell line [7]): >161; Partition coefficient [8]: 0.05
3.5 | Nc1nc2c(ncn2[C@H]2CC[C@@H](CO)O2)c(=O)[nH]1 | > 900 | Ratio (ATH-8 cell line [7]): >257; Partition coefficient [8]: 0.08
5 | Cc1cn([C@H]2C[C@H](N=[N+]=[N-])[C@@H](CO)O2)c(=O)[nH]c1=O [ZIDOVUDINE] | > 20 | Partition coefficient [8]: 1.12; Ratio (ATH-8 cell line [6]): 4
2.4 | Nc1nc(F)c2ncn([C@H]3CC[C@@H](CO)O3)c2n1 | > 300 | EC50 (ATH-8 cell line [3]): 14.5 µM
